Results published in patent US11497788B2, “Supramolecular glycosaminoglycans” (Northwestern University, priority 2015, dated 2022).

Legend:
[1] = test system: FGF-2 signaling in BaF3-FR1C cells; experiment: BaF3-FR1C cell proliferation assay with FGF-2; type: cell-based; details: FGF-2 10 ng/ml; 2 days
Method: BaF3-FR1C Cell Proliferation Assay: Upon reception of a frozen vial, BaF3-FR1C cells were cultured and expanded in growth media as recommended (40). The cells were grown in RPMI1640 medium with 2 mM L-glutamine (Thermo Fisher) containing 10% newborn bovine calf serum (Thermo Fisher), 0.5 ng/mL of recombinant mouse IL-3 (Peprotech), 600 μg/mL of G418 sulfate (Thermo Fisher), 50 nM of 2-mercaptoethanol (Thermo Fisher), and 100 unit/mL penicillin and 100 μg/mL streptomycin (Thermo Fisher) at 37° C., 5% CO2. The medium was changed every 2 days. Experiments were performed using with 1-3 week old passaged cells. The BaF3-FR1C cells were first assessed with the CyQUANT direct cell proliferation assay (Thermo Fisher), but no change in fluorescent signal was observed from a 0 to 2 day old culture in growth conditions although the growth was evident under the microscope. […] For assays testing the effect of heparin and glycopeptide nanofibers FGF-2 induced proliferation, 10,000 cells/well were plated in 50 μl of growth media without G148 sulfate and recombinant mouse IL-3 (NT media) in a 96-well plate. We then added a 2×concentrated mixture of FGF-2 with heparin or glycopeptide nanofibers in the same NT media. […] The absorbance was read at 490 nm in a Cytation 3 instrument (BioTek) and cell growth was compared to cells in NT media. […]

[2] = test system: rat posterolateral lumbar intertransverse spinal fusion model; experiment: Rat posterolateral lumbar intertransverse spinal fusion model; type: in vivo
Method: Rat Posterolateral Lumbar Intertransverse Spinal Fusion: The study was approved by and conducted in line with the Institutional Animal Care and Use Committee (IACUC) policies and procedures. […] female Sprague-Dawley rats at ages 12-16 weeks were utilized. Animals were assigned to the following treatment groups: 1) 100 ng BMP-2, n=8; 2) 100 ng BMP-2 with PA 4 nanofibers, n=12; and 3) 100 ng BMP-2 with PA 1 nanofibers, n=12. The denoted BMP-2 dose refers to total growth factor amount implanted via two absorbable collagen sponges per animal. For instance, in the 100 ng BMP-2 control group, two collagen sponges (1.75×0.5×0.5 cm) were each impregnated with 50 ng BMP-2 in 100 uL saline containing 6 mM CaCl2, then implanted adjoining the L4-L5 transverse processes on either side of the spine. For PA groups, 100 uL of PA solutions (6 mM) were used in place of saline.
PA solutions were spun down, pipetted for homogeneous mixing, then mixed with BMP-2 at 10:1 vol. ratio to yield 6 mM PA with appropriate BMP-2 concentrations.
Surgical Procedures: Rats were maintained on a heating pad under continuous anesthesia with an isoflurane inhalational anesthetic delivery system, and they were monitored by an assistant for cardiac or respiratory difficulties throughout the procedure. Utilizing a previously-described surgical technique (refs. 23, 41; incorporated by reference in their entireties), the L4 and L5 transverse processes were exposed, irrigated with sterile gentamicin/saline solution, the superficial cortical layer decorticated with a high-speed burr, then collagen sponges with appropriate treatments were implanted bilaterally in the paraspinal musculature between the transverse processes. Afterwards, the fascia and skin incisions were closed, and rats were housed in separate cages.
Manual Palpation: Fusion was assessed via manual palpation following euthanasia at 8 weeks post-surgery. Spines were scored by three blinded observers using a previously established scoring system: 0=no bridging; 1=unilateral bridging; and 2=bilateral bridging (23, 41). To assess fusion rate, spines that received an average score of 1.0 or greater were considered successfully fused.
Micro-Computed Tomography: Synchrotron micro-computed tomography (μCT) was performed on representative samples at station 2-BM of the APS (42, 43). Due to the size constraint of the μCT set-up, harvested spines were sagittally cut along the midline of the vertebrate body, using a slow-speed diamond saw (ref. 43; incorporated by reference in its entirety). Data were acquired with 27 keV photons, projections were recorded every 0.12° over 180°, and reconstruction was on a 2,048×2,048 grid with isotropic 1.45 μm voxels using TomoPy (44). […]

Factor Xa = details: compared to heparin
Method: Anticoagulation Assay: PA 1 was dissolved to 5 mM in saline with 5 mM CaCl2), pH 7.2, thermally annealed at 80° C. for 30 min and slowly cooled to room temperature. The PA solution was spun down, pipetted for homogeneous mixing, and diluted to 0.25, 2.5, 25, and 100 μM in saline with 2 mM CaCl2). The anticoagulant activities of PA 1 and heparin were assessed by monitoring the activity of Factor Xa, a coagulation cascade enzyme inhibited by heparin-activated antithrombin. The assay was performed using the COATEST Heparin Kit (Chromogenix) according to the manufacturer's instructions. Values were represented as the relative bioactivity of Factor Xa when compared to treatment group treated with saline only.

## 3,4,6S-GlcNAc PA (VVAAEEK) [PA 1]
[1]
  FGF-2 mediated cell proliferation: improved
[2]; 100 ng BMP-2, 6 mM PA, 8 weeks, relative to PA 4 nanofibers or saline
  fusion scores, blind manual palpation: highest fusion scores
[2]; 100 ng BMP-2, 6 mM PA, 8 weeks, score ≥1 = fused
  fusion rate: 100%
[2]; 100 ng BMP-2 delivered with nanofibers
  new bone formation, synchrotron micro-computed tomography: formation of new bone connecting the transverse processes
[2]; 100 ng versus 10 μg BMP-2 required in the model
  reduction of required GF (BMP-2) for spinal fusion: 100 fold
Factor Xa
  anticoagulation activity (Factor Xa activity): minimal anticoagulation activity
